We go through 20 compounds from patent publication US9540361B2, “N-substituted azetidine derivatives” (Merck Sharp & Dohme B.V., priority 2010, dated 2017).

The target in assay [1] is T1, estrogen receptor alpha (Homo sapiens, UniProt P03372).
T1 construct: endogenous in cells; host or cells: T47D human breast cancer cells (ATCC)
T1 sequence (P03372 1-595): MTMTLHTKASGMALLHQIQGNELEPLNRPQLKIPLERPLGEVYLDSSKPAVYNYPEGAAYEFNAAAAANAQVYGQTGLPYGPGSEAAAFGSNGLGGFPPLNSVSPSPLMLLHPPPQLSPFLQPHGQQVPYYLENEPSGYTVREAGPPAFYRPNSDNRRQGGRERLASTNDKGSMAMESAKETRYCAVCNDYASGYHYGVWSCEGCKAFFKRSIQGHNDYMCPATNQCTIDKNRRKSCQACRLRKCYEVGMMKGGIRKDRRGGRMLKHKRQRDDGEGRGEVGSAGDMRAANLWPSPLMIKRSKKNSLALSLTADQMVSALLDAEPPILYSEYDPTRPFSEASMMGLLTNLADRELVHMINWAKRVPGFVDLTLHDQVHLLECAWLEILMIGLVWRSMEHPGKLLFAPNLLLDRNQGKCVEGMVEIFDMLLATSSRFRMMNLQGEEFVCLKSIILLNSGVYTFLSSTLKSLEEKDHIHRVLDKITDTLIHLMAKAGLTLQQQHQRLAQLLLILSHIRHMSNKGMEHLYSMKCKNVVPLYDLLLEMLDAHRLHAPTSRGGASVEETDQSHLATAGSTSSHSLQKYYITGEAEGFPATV
The experiment in a line: ERα downregulation assay in T47D breast cancer cells (ERα ELISA). Format: cell-based. The settings on record: downregulation of ERα relative to fulvestrant (100%), 1E-5 M, 24 hours, negative = upregulation. The source says: More specifically, this in vitro bioassay is used to determine the efficacy (fraction of maximal response) of the compound by comparing the data for this compound with those of the reference compound ICI 182,780 (fulvestrant) in the same test (downregulation of fulvestrant is 100% by definition).
A more detailed description of the method used is as follows.
Cell culture. The human epithelial breast cancer cell line T47D (origin: ATCC) was routinely maintained in a 1:1 mixture of Ham's F12 medium and Dulbecco's Modified Eagle Medium (Gibco) enriched with 5% fetal calf serum (Hyclone), 10 mM HEPES pH 7.5 and 100 μg/ml penicillin-streptomycin solution. Cells were grown in 80 cm2 culture flasks (Nunc, Roskilde, Denmark) and kept in an atmosphere of 5% CO2-95% air at 37 degrees Celsius. Cells were subcultured when they reached about 80-90% confluence, resulting in one passage a week. Subculturing includes detaching the cells using Cell Dissociation Buffer [Sigma] and subsequent inoculation at 1:5 or 1:10 in a new Roux flask (175 cc) and\or plating out in Nunclon™ Surface 96 wells microplates. The culture medium needs to be refreshed on day three or four of the incubation, if applicable.
Determination of ERα protein levels: T47D cells in the microplates are incubated with 1E-5 M test compound for 24 hours. The supernatant in all wells is carefully aspirated. Cells are lysed on the microplate and cell lysates are probed for ERα content using an ERα ELISA assay kit (Active Motif).
(ELISA stands for enzyme-linked immunosorbent assay.)

Assay [2] addresses T2, human estrogen receptor α (hERα) (Homo sapiens, UniProt P03372).
T2 sequence (P03372 1-595): T1 sequence (P03372 1-595)
Put plainly: antagonistic activity in CHO cells co-transfected with hERα, rat oxytocin promoter and luciferase reporter gene. Format: cell-based. As to conditions: antagonism of 17β-estradiol-induced transactivation, CHO-hERα-RO-LUC; read-out: ERα pIC50 (converted). The method, then:
The antagonistic activity of compounds on the estrogen receptors was determined in an in vitro bioassay with recombinant Chinese Hamster Ovary (CHO) cells stably co-transfected with the human estrogen receptor α (hERα), the rat oxytocin promoter (RO) and the luciferase reporter gene (LUC). […] The antagonistic efficacy, i.e. the amount of maximal inhibition of the 17β-estradiol activated receptor by a compound, is expressed as fraction relative to the maximal inhibition as induced by the standard anti-estrogen ICI 164,384 (efficacy test compound=(maximal inhibition test compound/maximal inhibition ICI 164,384)). A more detailed description of the methodology can be found in De Gooyer et al., Steroids, 68 (2003) 21-30.
For orientation: A reporter such as luciferase makes a cellular process visible.

Marks after values point to notes of the source that are not given here.

For `CCCN1CC(Oc2ccc(C(=O)c3c(-c4ccccc4Cl)noc3-c3cccc(O)c3)cc2)C1.Cl` [compound 7ap, (3-(2-chlorophenyl)-5-(3-hydroxyphenyl)isoxazol-4-yl)(4-(1-propylazetidin-3-yloxy)phenyl)methanone hydrochloride], the “DR (%)” value in assay [1] was determined as 90%. For the same compound, the IC50 in assay [2] is 2 nM.

Regarding `Cl.Oc1ccc(-c2onc(-c3ccccc3Cl)c2-c2ccc(OC3CN(CC4CCOC4)C3)cc2)cc1` (stereo not shown) [compound 7x, 4-(3-(2-chlorophenyl)-4-(4-(1-((tetrahydrofuran-3-yl)methyl)azetidin-3-yloxy)-phenyl)isoxazol-5-yl)phenol hydrochloride], the “DR (%)” value in assay [1] is given as 66%. In addition, the IC50 in assay [2] is 0.501 nM.

For `CCN1CC(Oc2ccc(C(=O)c3c(-c4ccc(O)cc4)sc4cc(O)ccc34)cc2)C1.O=C(O)C(F)(F)F` [compound 7g, (4-(1-ethylazetidin-3-yloxy)phenyl)(6-hydroxy-2-(4-hydroxyphenyl)benzo[b]-thiophen-3-yl)methanone 2,2,2-trifluoroacetate], the “DR (%)” value in assay [1] is on record as 46%. Further, the IC50 in assay [2] is 3.98 nM.

`C=C(c1ccc(OC2CN(CCC)C2)cc1)c1c(-c2ccccc2Cl)noc1-c1ccc(O)cc1` [compound 7ax, 4-(3-(2-chlorophenyl)-4-(1-(4-(1-propylazetidin-3-yloxy)phenyl)vinyl)isoxazol-5-yl)phenol]: the “DR (%)” value in assay [1] was found to be 33%. Also, in assay [2], the IC50 was 0.794 nM.

`COCCCN1CC(Oc2ccc(C(=O)c3c(-c4ccc(O)cc4)sc4cc(O)ccc34)cc2)C1.O=C(O)C(F)(F)F` [compound 7k, (6-hydroxy-2-(4-hydroxyphenyl)benzo[b]thiophen-3-yl)(4-(1-(3-methoxypropyl)azetidin-3-yloxy)phenyl)methanone 2,2,2-trifluoroacetate]: the “DR (%)” value in assay [1] is listed as 57%. In assay [2], the IC50 is 2 nM.

As for `CCCN1CC(Oc2ccc(C(=C(CC)c3ccccc3)c3ccc(O)cc3)cc2)C1` (mixture of isomers) [compound 6v, (E/Z)-4-(2-phenyl-1-(4-(1-propylazetidin-3-yloxy)phenyl)but-1-enyl)phenol 2,-2,2-trifluoroacetate], the “DR (%)” value in assay [1] is reported as −5 ^(d) %. Also, the IC50 in assay [2] was 0.501 nM.

Consider `CCCN1CC(Oc2ccc(Cc3c(-c4ccccc4)c(=O)oc4cc(OC)ccc34)cc2)C1` [compound 7bf, 7-methoxy-3-phenyl-4-(4-(1-propylazetidin-3-yloxy)benzyl)-2H-chromen-2-one], for which the “DR (%)” value in assay [1] is 33%. Besides, in assay [2], the IC50 was 63.1 nM.

For `Cl.O=C(c1ccc(OC2CN(C3CCC3)C2)cc1)c1c(-c2ccc(O)cc2)sc2cc(O)ccc12` [compound 7l, (4-(1-cyclobutylazetidin-3-yloxy)phenyl)(6-hydroxy-2-(4-hydroxyphenyl)-benzo[b]thiophen-3-yl)methanone hydrochloride], the “DR (%)” value in assay [1] is 30%. Also, the IC50 in assay [2] was 0.794 nM.

With `CCCN1CC(Oc2ccc(C(OC)c3c(-c4ccccc4Cl)noc3-c3ccc(O)cc3)cc2)C1` (stereo not shown) [compound 7aw, 4-(3-(2-chlorophenyl)-4-(methoxy(4-(1-propylazetidin-3-yloxy)phenyl)methyl)-isoxazol-5-yl)phenol], the “DR (%)” value in assay [1] was 64%. In addition, in assay [2], the IC50 is 7.94 nM.

Take `CC(C)CN1CC(Oc2ccc(C(=O)c3c(-c4ccc(O)cc4)sc4cc(O)ccc34)cc2)C1.Cl` [compound 7m, (6-hydroxy-2-(4-hydroxyphenyl)benzo[b]thiophen-3-yl)(4-(1-isobutylazetidin-3-yloxy)phenyl)methanone hydrochloride]: in assay [1], the “DR (%)” value is reported as 73%. The IC50 in assay [2] was 1 nM.

As for `CCCN1CC(Oc2ccc(C(=O)c3c(-c4ccccc4Cl)noc3-c3ccc(N)cc3)cc2)C1.O=C(O)C(F)(F)F` [compound 7ar, (5-(4-aminophenyl)-3-(2-chlorophenyl)isoxazol-4-yl)(4-(1-propylazetidin-3-yl-oxy)phenyl)methanone 2,2,2-trifluoroacetate], the “DR (%)” value in assay [1] is listed as 82%. For the same compound, in assay [2], the IC50 was 20 nM.

On to `CCCN1CC(Oc2ccc([C@H]3c4ccc(OC)cc4OC(C)(C)[C@@H]3c3ccccc3)cc2)C1.O=C(O)C(F)(F)F` [compound 6o, 3-(4-((3S,4S)-7-methoxy-2,2-dimethyl-3-phenylchroman-4-yl)phenoxy)-1-propylazetidine 2,2,2-trifluoroacetate], for which the “DR (%)” value in assay [1] was 75%. Further, in assay [2], the IC50 was 25.1 nM.

For `CCCN1CC(Oc2ccc(-c3c(-c4cccc(C)c4C)noc3-c3ccc(O)cc3)cc2)C1.O=C(O)C(F)(F)F` [compound 7ac, 4-(3-(2,3-dimethylphenyl)-4-(4-(1-propylazetidin-3-yloxy)phenyl)isoxazol-5-yl)phenol 2,2,2-trifluoroacetate], in assay [1], the “DR (%)” value was 94%. The IC50 in assay [2] is 1.58 nM.

In the case of `CCCN1CC(Oc2ccc(C(=O)c3c(-c4sccc4C)noc3-c3ccc(O)cc3)cc2)C1.Cl` [compound 7an, (5-(4-hydroxyphenyl)-3-(3-methylthiophen-2-yl)isoxazol-4-yl)(4-(1-propylazetidin-3-yloxy)phenyl)methanone hydrochloride], in assay [1], the “DR (%)” value was 98%. Also, the IC50 in assay [2] was 2 nM.

Turning to `CCCN1CC(Oc2ccc(-c3c(-c4c(C)noc4C)noc3-c3ccc(O)cc3)cc2)C1.Cl` [compound 7af, 4-(3′,5′-dimethyl-4-(4-(1-propylazetidin-3-yloxy)phenyl)-3,4′-biisoxazol-5-yl)-phenol hydrochloride], in assay [1], the “DR (%)” value is listed as 92%. Moreover, the IC50 in assay [2] was 3.16 nM.

Turning to `O=C(O)C(F)(F)F.O=C(c1ccc(OC2CN(CCCF)C2)cc1)c1c(-c2ccc(O)cc2)sc2cc(O)ccc12` [compound 7j, (4-(1-(3-fluoropropyl)azetidin-3-yloxy)phenyl)(6-hydroxy-2-(4-hydroxyphenyl)benzo[b]thiophen-3-yl)methanone 2,2,2-trifluoroacetate], the “DR (%)” value in assay [1] came out at 98%. In addition, in assay [2], the IC50 is 2.51 nM.

Turning to `CCCN1CC(Oc2ccc(-c3c(-c4ccccc4CC)noc3-c3ccc(O)cc3)cc2)C1.O=C(O)C(F)(F)F` [compound 7ad, 4-(3-(2-ethylphenyl)-4-(4-(1-propylazetidin-3-yloxy)phenyl)isoxazol-5-yl)-phenol 2,2,2-trifluoroacetate], in assay [1], the “DR (%)” value is 92%. In addition, in assay [2], the IC50 was 1 nM.

In the case of `CCCN1CC(Oc2ccc(C(=O)c3c(-c4ccccc4Cl)noc3-c3ccc(O)cc3)cc2F)C1.Cl` [compound 7at, (3-(2-chlorophenyl)-5-(4-hydroxyphenyl)isoxazol-4-yl)(3-fluoro-4-(1-propylazetidin-3-yloxy)phenyl)methanone hydrochloride], in assay [1], the “DR (%)” value is recorded as 101%. Besides, in assay [2], the IC50 was 1.58 nM.

Regarding `Cl.O=C(c1ccc(OC2CN(CCC(F)(F)F)C2)cc1)c1c(-c2ccc(O)cc2)sc2cc(O)ccc12` [compound 7p, (6-hydroxy-2-(4-hydroxyphenyl)benzo[b]thiophen-3-yl)(4-(1-(3,3,3-trifluoropropyl)azetidin-3-yloxy)phenyl)methanone hydrochloride], in assay [1], the “DR (%)” value came to 35%. In assay [2], the IC50 was 5.01 nM.

As to `CCCN1CC(Oc2ccc(Oc3c(-c4ccc(O)cc4)sc4cc(O)ccc34)cc2)C1.O=C(O)C(F)(F)F` [compound 6c, 2-(4-hydroxyphenyl)-3-(4-(1-propylazetidin-3-yloxy)phenoxy)benzo[b]thiophen-6-ol 2,2,2-trifluoroacetate], the “DR (%)” value in assay [1] is reported as 7 ^(c) %. Moreover, the IC50 in assay [2] is 0.251 nM.
